According to patent EP0044527A1, “Substituted derivatives of benzyl triesters of cyclic adenosin-3',5'-phosphate, method for their preparation and pharmaceutical compositions containing them” (priority 1980, dated 1982):
Where two headings read alike, the source gives them in different places.

Assays:
[1] = tested on: Trachealspangen-Kette des Meerschweinchens; experiment: Relaxation of spontaneously contracted tracheal ring chain in vitro, relative to (-)isoprenaline maximum; assay type: cell-based, Meerschweinchen; conditions: for EC50: Cavia porcellus, Dosis der halbmaximal möglichen Relaxation, Relaxation relative to (-)Isoprenalin 10^-6 Mol/l, read-out: ED50 (the source's name); for Relative Wirkungsstärke (Theophyllin = 1,00): im Vergleich zu Theophyllin
Procedure: Weiterhin wurde die relaxierende Wirkung erfindungsgemäßer Verbindungen auf die Trachealspangen-Kette des Meerschweinchens in vitro geprüft: • Vier parallele, aus jeweils 6 Einzelringen bestehende Trachealspangen-Ketten des Meerschweinchens (♂ und $, 430 - 600 g) im Organbad (5 ml, Krebs-Henseleit-Lösung mit Zusatz von Phentolamin (10^-5 Mol/l, 37°C, Vorspannung der Organe 2 g, Begasung mit Carbogen) entwickeln nach etwa 20 bis 30 Minuten eine stabile, tonische Spontankontraktur. An diesen dauerkontrahierten Organen kann unter isometrischen Meßbedingungen durch Applikation der Prüfsubstanz in kumulativhalblogarithmisch ansteigender Konzentration (z.B. 1x10-^6 + 2x-10^-6 + 7x10^-6 + 2x10^-5 usw. Mol/l) eine Relaxation herbeigeführt werden, wobei nach jeder Einzeldosis der Testsubstanz eine konstante Relaxations-Antwort abgewartet wird, bevor die nächst höhere Konzentration appliziert wird. Ober einen Zeitraum von 20 bis 30 Minuten wird somit eine vollständige Dosis-Wirkungskurve der Testsubstanz erhalten. Die jeweilige Relaxation wird als Prozentbruchteil der durch Gabe von (-)Isoprenalin (10^-6 Mol/1) maximal erreichbaren Relaxation ausgedrückt.
In Tabelle IV sind die ED50 (Dosis der halbmaximal möglichen Relaxation) und die relative Wirkungsstärke im Vergleich zu Theophyllin für erfindungsgemäße Verbindungen angegeben.

[2] = Partition coefficient octanol/buffer pH 7.4 (lg P); assay type: physicochemical; conditions: Octanol/Puffer
From the text: Weitere physikalische Daten finden sich in der folgenden Tabelle I, die auch zusätzliche beispielhaft hergestellte erfindungsgemäße Verbindungen und deren physikalische Daten enthält. Dabei bedeutet P den Verteilungskoeffizienten Octanol/Puffer, pH 7,4: P = [formula]

[3] = tested on: Papillarmuskeln aus dem rechten Ventrikel des Meerschweinchenherzens; experiment: Positive inotropic effect on isolated papillary muscle, isometric force, with or without phosphodiesterase inhibitor; assay type: cell-based, Meerschweinchen; conditions: for minimal effective concentration: read-out: Schwellenkonz.
Procedure: Zur Bestimmung positiv inotroper Wirkungen wurden Papillarmuskeln aus dem rechten Ventrikel des Meerschweinchenherzens verwendet. Die adrenergen Nervenendigungen waren frei von Noradrenalin (Katecholamin-Entspeicherung durch intraperitoneale Injektion von 5 mg/kg Reserpin 24 Stunden vor Präparation der Tiere). Die Aufhängung der Muskeln erfolgte an einem induktiven Kraftaufnehmer in einer mit Sauerstoff gesättigten physiologischen Nährlösung (Volumen 50 ml). Die Kraftregistrierung erfolgte isometrisch, Kontraktionskurven wurden mittels eines Tintenschreibers aufgezeichnet und dann analysiert. Vor Zugabe der Testsubstanz wurden die Muskeln bei konstanter Reizung (Frequenz 0,2 Hz, Reizdauer 1 ms) bis zum Erreichen eines stationären Zustands ("steady state") der Kraft in der Nährlösung äquilibriert. Die Konzentration der Testsubstanz wurde dann erhöht, wenn die Kraft innerhalb von 10 min nicht weiter zunahm.
In der folgenden Tabelle II sind die Konzentrationen der einzelnen Testsubstanzen aufgetragen, bei denen der positiv inotrope Effekt gerade erkennbar war (Schwellenkonzentration) oder 50 % der maximalen Kraftzunahme erreichte (EC50). Diese Werte wurden im unteren Teil der Tabelle denen bereits bekannter Testsubstanzen gegenübergestellt. Weiterhin werden Schwellenkonzentrationen und EC50-Werte für die aufgeführten Testsubstanzen in Anwesenheit des Phosphodiesterase-Hemmstoffs 1-Methyl-3-isobutylxanthin (IBMX) (2 x 10^-5 Mol/l) angegeben. Es resultiert eine Verschiebung zu 30 - 40-fach niedrigeren Konzentrationen im Vergleich zu den Werten ohne Phophodiesterase-Hemmstoff. Ein ähnlicher Synergismus wurde auch mit Papaverin (1 x 10^-5 Mol/l) und mit Theophyllin (3 x 10-^4 Mol/1) beobachtet.

[4] = tested on: isolierte Trachealstreifen des Meerschweinchens; experiment: Relaxation of isolated tracheal strips (smooth muscle of the respiratory tract); assay type: cell-based, Meerschweinchen; conditions: Cavia porcellus, read-out: Abnahme der Muskelspannung (T) in % des Kontrollwertes
From the text: Zur Bestimmung der erschlaffenden Wirkung von 8-CH3S-cAMP-OCH2C6H5 (Verbindung 2) auf die glatte Muskulatur des Respirationstraktes wurden isolierte Trachealstreifen des Meerschweinchens verwendet. Aufhängung der Präparate erfolgte wie bereits beschrieben. Nach Vorgabe einer geeigneten Testspannung (0,8 g) wurde die erschlaffende Wirkung der Testsubstanz in Abhängigkeit von der Konzentration getestet. Nach Auswaschen der Testsubstanz wurde der Versuch mit einem bereits bekannten cAMP-Derivat (Dibutyryl-cAMP, Vergleichsverbindung 1) wiederholt.

[5] = tested on: isoliertes Meerschweinchen-Myokard; conditions: Stand der Technik; cited from earlier work
[6] = pH 7, Diastereomerengemisch, pH 7,4, read-out: lg P Gemisch
[7] = pH 7, Konfig. ax, pH 7,4, read-out: lg P
[8] = pH 7, Konfig. äq, pH 7,4, read-out: lg P
[9] = 50 % der maximalen Kraftzunahme, in Anwesenheit von IBMX (2 x 10^-5 Mol/l), read-out: EC50 + 20 µMol IBMX
[10] = 50 % der maximalen Kraftzunahme, ohne IBMX, read-out: EC50
[11] = positiv inotroper Effekt gerade erkennbar, in Anwesenheit von IBMX (2 x 10^-5 Mol/l)
[12] = positiv inotroper Effekt gerade erkennbar, ohne IBMX
[13] = pH 7, Vergleichsverbindungen, pH 7,4, read-out: lg P - Werte

| SMILES | logD [2, 6] | EC50 [3, 9] [µM] | EC50 [3, 10] [µM] | logD [2, 7] | logD [2, 8] | Schwellenkonz. + 20 µMol IBMX [3, 11] [mol/L] | minimal effective concentration [3, 12] [µM] | also measured |
| --- | --- | --- | --- | --- | --- | --- | --- | --- |
| Cn1c(=O)c2[nH]cnc2n(C)c1=O [Theophyllin, reference compound] |  |  |  |  |  |  |  | EC50 [1]: 130 µM; Relative Wirkungsstärke (Theophyllin = 1,00) [1]: 1,00 |
| CSc1nc2c(N)ncnc2n1[C@@H]1O[C@@H]2COP(=O)(OCc3ccccc3)O[C@H]2[C@H]1O (some centres unmarked) [Verbindung 2, 8-Methylthio-adenosin-3',5^1-monophosphorsäurebenzylester] | 1.62 |  |  | 1.55 | 1.7 | 1e-07 |  | EC50 [3]: 10 µM; EC50 ([3]; read-out: EC50 + 20 µMol IBMX): 0.45 µM; minimal effective concentration [3]: 3 µM; inhibition at 1 µM [4]: 20%; inhibition at 3 µM [4]: 85%; inhibition at 10 µM [4]: 100%; inhibition at 30 µM [4]: 100% |
| Nc1ncnc2c1nc([Se]Cc1ccccc1)n2[C@@H]1O[C@@H]2COP(=O)(OCc3ccccc3)O[C@H]2[C@H]1O (some centres unmarked) [Verbindung 4, 8-Benzylseleno-adenosin-3',5'-monophosphorsäurebenzylester] | 1.67 |  |  | 1.7 | 1.64 | 1e-07 |  | EC50 [3]: 10 µM; EC50 ([3]; read-out: EC50 + 20 µMol IBMX): 0.55 µM; minimal effective concentration [3]: 3 µM |
| CN(Cc1ccccc1)c1nc2c(N)ncnc2n1[C@@H]1O[C@@H]2COP(=O)(OCc3ccccc3)O[C@H]2[C@H]1O (some centres unmarked) [Verbindung 7, 8-N-Benzyl-N-methylamino-adenosin-3',5'-monophosphorsäurebenzylester] | 2.29 |  |  |  |  |  |  |  |
| CCCC(=O)Nc1ncnc2c1ncn2[C@@H]1O[C@@H]2COP(=O)(O)O[C@H]2[C@H]1OC(=O)CCC [Vergleichs-verbindung 1, Dibutyryl-cAMP, reference compound] |  | 300 | 1000 |  |  | 0.0001 | 300 | logD [2, 13]: -1.1; inotrope Wirkung (Nebenwirkung) [5]: anfangs negativ inotrope Wirkungen; inhibition at 1000 µM ([4]; 1 x 10^-3 Mol/l): 75%; inhibition at 100 µM ([4]; 1 x 10^-4 Mol/l): 8%; inhibition at 300 µM ([4]; 3 x 10^-4 Mol/l): 16% |

Further lines, with some results ahead:

| logD [2, 6] | EC50 [3, 9] [µM] | EC50 [3, 10] [µM] | SMILES | logD [2, 7] | logD [2, 8] | Schwellenkonz. + 20 µMol IBMX [3, 11] [mol/L] | minimal effective concentration [3, 12] [µM] | also measured |
| --- | --- | --- | --- | --- | --- | --- | --- | --- |
| 1.58 | 1.5 | 10 | Nc1ncnc2c1nc(Br)n2[C@@H]1O[C@@H]2COP(=O)(OCc3ccccc3)O[C@H]2[C@H]1O (some centres unmarked) [Verbindung 1, 8-Brom-adenosin-3',5'-monophosphorsäurebenzylester] | 1.61 | 1.54 | 3e-07 | 3 | EC50 [1]: 7 µM; Relative Wirkungsstärke (Theophyllin = 1,00) [1]: 18,5 |
| 1.92 | 0.6 | 20 | Nc1ncnc2c1nc(SCc1ccccc1)n2[C@@H]1O[C@@H]2COP(=O)(OCc3ccccc3)O[C@H]2[C@H]1O (some centres unmarked) [Verbindung 3, 8-Benzylthioadenosin-3',5'-monophosphorsäurebenzyltriester] | 1.96 | 1.88 | 1e-07 | 10 |  |
| 2.24 | 0.3 | 2 | Nc1ncnc2c1nc(Sc1ccc(Cl)cc1)n2[C@@H]1O[C@@H]2COP(=O)(OCc3ccccc3)O[C@H]2[C@H]1O (some centres unmarked) [Verbindung 5, 8-(4-Chlor-phenylthio)-adenosin-3',5'-monophosphorsäurebenzylester] |  |  | 3e-08 | 0.1 | EC50 [1]: 38 µM; Relative Wirkungsstärke (Theophyllin = 1,00) [1]: 3,4 |
| 1.97 | 20 | 40 | Nc1ncnc2c1nc(NCc1ccccc1)n2[C@@H]1O[C@@H]2COP(=O)(OCc3ccccc3)O[C@H]2[C@H]1O (some centres unmarked) [Verbindung 6, 8-Benzylamino-adenosin-3^1,5^1-monophosphorsäurebenzylester] |  |  | 5e-06 | 10 |  |
|  | 150 | 800 | Nc1ncnc2c1nc(SCc1ccccc1)n2[C@@H]1O[C@@H]2COP(=O)(O)O[C@H]2[C@H]1O [compound 2, 8-Benzylthioadenosin-3',5'-phosphorsäure, reference compound] |  |  | 1e-05 | 100 | logD [2, 13]: -1.15 |
|  | 60 | 250 | Nc1ncnc2c1ncn2[C@@H]1O[C@@H]2COP(=O)(OCc3ccccc3)O[C@H]2[C@H]1O (some centres unmarked) [compound 3, Adenosin-3',5'-phosphorsäurebenzylester, reference compound] |  |  | 1e-05 | 100 | logD [2, 13]: 1.1 |
